Where “and” joins values, the source holds several entries; their conditions need not be identical. Identical values can stand only once.
Key:
[1] = tested on: left atrium of the anesthetized pig; assay: Refractory period and left-atrial vulnerability in the anesthetized pig; format: in vivo; details: for % inhibition of the arrhythmias: arrhythmias induced by premature extra-stimulus (S2) in the left atrium, 3 mg/kg; for % inhibition of the arrhythmias / % increase in the refractory period: mean value; for % increase in the refractory period: left atrium, 10 minutes after injection, mean of three rates (150, 200 and 250/min); for antiarrhythmic action: model on the anesthetized pig
Description: Investigation of the Refractory Period and the Left-Atrial Vulnerability in the Pig
In the course of this, the refractory period of the left atrium was determined and the antiarrhythmic activity was recorded as described in the literature (Knobloch et al. 2002. Naunyn-Schmiedberg's Arch. Pharmacol. 366; 482-487). The anti-arrhythmic action relates here to the inhibition of the occurrence of episodes of arrhythmias which are induced by a prematurely placed extra-stimulus (S2) in the left atrium (=left-atrial vulnerability).
The refractory period values are stated in percent of the basal values 10 minutes after injection. Mean values for the refractory periods are shown from three rates (150, 200 and 250/min).
By repeated measurement after substance administration, the duration of action of a substance on the refractory period can be determined in this experimental procedure. The R enantiomer was infused intravenously over the course of 100 minutes in a dose of 1 mg/kg and the pharmacological action was determined over the course of 280 minutes.

[2] = Effect on QTc interval and inotropic or hemodynamic side effects; details: in vivo
[3] = anesthetized pig, bolus 3 mg/kg

melting point [°C] | SMILES | % inhibition of the arrhythmias [1, 3] | % increase in the refractory period [1, 3] [%] | antiarrhythmic action ([1]; result in words) | duration of action on the left-atrial refractory period after ending the infusion ([1]; anesthetized pig, 1 mg/kg intravenous infusion over 100 minutes, observed over 280 minutes, FIG. 1) [min] | % inhibition of the arrhythmias ([1]; anesthetized pig, bolus 3 mg/kg, listed as R enantiomer) [%] | prolongation of the refractory period (comparison of enantiomers) ([1]; anesthetized pig, bolus 3 mg/kg, result in words) | effect on the QTc interval [2] | negative inotropic or hemodynamic side effects [2]
 | CCCCS(=O)(=O)Nc1ccccc1C(=O)N[C@@H](CC)c1ccc(OC)nc1 [S enantiomer, 2-(butyl-1-sulfonylamino)-N-[1(S)-(6-methoxypyridin-3-yl)propyl]benzamide] | 27% and 27.3% | 8.8 | more weakly active |  |  |  |  | 
97 | CCCCS(=O)(=O)Nc1ccccc1C(=O)N[C@H](CC)c1ccc(OC)nc1 [formula I, 2-(butyl-1-sulfonylamino)-N-[1(R)-(6-methoxypyridin-3-yl)propyl]benzamide] |  | 19 | excellent | ≥ 180 | 73.9 | markedly greater prolongation of the refractory period than the S enantiomer | no effect | no negative inotropic or hemodynamic side effects

From US20040192738A1, “2-(Butyl-1-sulfonylamino)-N-[1(R)-(6-methoxypyridin-3-yl)propyl] benzamide, its use as a medicament, and pharmaceutical preparations comprising it” (Aventis Pharma Deutschland GmbH, priority 2003, published 2004)
